Where a name gives a salt, the structure may show the parent alone.

T1 sequence (P26663 2420-3010): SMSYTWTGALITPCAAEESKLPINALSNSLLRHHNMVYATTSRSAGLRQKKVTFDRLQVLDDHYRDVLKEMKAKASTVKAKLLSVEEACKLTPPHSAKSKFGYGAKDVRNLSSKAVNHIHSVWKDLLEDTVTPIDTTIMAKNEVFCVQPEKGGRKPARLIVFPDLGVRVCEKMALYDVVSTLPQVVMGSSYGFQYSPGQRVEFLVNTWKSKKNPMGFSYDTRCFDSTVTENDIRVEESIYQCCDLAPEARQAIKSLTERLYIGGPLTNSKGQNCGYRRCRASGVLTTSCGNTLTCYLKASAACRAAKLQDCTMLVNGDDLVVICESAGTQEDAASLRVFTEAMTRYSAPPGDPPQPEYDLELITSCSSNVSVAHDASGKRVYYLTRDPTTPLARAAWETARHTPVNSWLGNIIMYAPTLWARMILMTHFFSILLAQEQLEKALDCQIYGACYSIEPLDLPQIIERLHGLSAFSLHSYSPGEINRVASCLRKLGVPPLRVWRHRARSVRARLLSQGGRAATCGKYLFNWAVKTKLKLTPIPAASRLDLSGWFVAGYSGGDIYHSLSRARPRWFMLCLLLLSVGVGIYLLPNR

The assay addresses T1, HCV polymerase (Hepatitis C virus genotype 1b, UniProt P26663).
T1 construct: a region encoding NS5B (591 amino acids; J Virol 1991 Mar, 65(3), 1105-13) was amplified by PCR; 6 His (N); made in house; host or cells: Escherichia coli
In words: biochemical. The note with it: read-out: HCV polymerase inhibitory activity IC50.
As to `CC(C)NC(=O)c1ccc(-c2ccc(F)c(Cl)c2)c(COc2ccc(-c3nc4cc(C(=O)O)ccc4n3C3CCCCC3)c(F)c2)c1` [Example 399, 2-{4-[2-(3-chloro-4-fluorophenyl)-5-(isopropylcarbamoyl)-benzyloxy]-2-fluorophenyl}-1-cyclohexylbenzimidazole-5-carboxylic acid hydrochloride], the IC50 (in general, the midpoint of a concentration-inhibition curve) is 0.032 µM.

With `CC(C)NS(=O)(=O)c1ccc(-c2ccc(Cl)cc2)c(COc2ccc(-c3nc4cc(C(=O)O)ccc4n3C3CCCCC3)c(F)c2)c1` [Example 409, 2-{4-[2-(4-chlorophenyl)-5-(isopropylaminosulfonyl)benzyloxy]-2-fluorophenyl}-1-cyclohexylbenzimidazole-5-carboxylic acid hydrochloride], the IC50 was 0.02 µM.

As to `CN(C)C(=O)c1ccc(-c2ccc(Cl)cc2)c(COc2ccc(-c3nc4cc(C(=O)O)ccc4n3C3CCCC3)c(F)c2)c1` [Example 410, 2-{4-[2-(4-chlorophenyl)-5-(dimethylcarbamoyl)benzyloxy]-2-fluorophenyl}-1-cyclopentylbenzimidazole-5-carboxylic acid hydrochloride], the half-maximal inhibitory concentration (IC50) came out at 0.018 µM.

In the case of `O=C(O)c1ccc2c(c1)nc(-c1ccc(OCc3cc(C(=O)N4CCC(O)CC4)ccc3-c3ccc(Cl)cc3)cc1F)n2C1CCCC1` [Example 411, 2-{4-[2-(4-chlorophenyl)-5-(4-hydroxypiperidin-1-ylcarbonyl)-benzyloxy]-2-fluorophenyl}-1-cyclopentylbenzimidazole-5-carboxylic acid hydrochloride], the IC50 is 0.015 µM.

`CC(C)NC(=O)c1ccc(-c2ccc(Cl)cc2)c(COc2ccc(-c3nc4cc(C(=O)O)ccc4n3C3CCCC3)c(F)c2)c1` [Example 412, 2-{4-[2-(4-chlorophenyl)-5-(isopropylcarbamoyl)benzyloxy]-2-fluorophenyl}-1-cyclopentylbenzimidazole-5-carboxylic acid hydrochloride]: the IC50 was 0.019 µM.

Regarding `CC(C)NC(=O)c1ccc(-c2ccc(Cl)cc2)c(COc2ccc(-c3nc4cc(C(=O)O)ccc4n3C3CCCC3)cc2)c1` [Example 413, 2-{4-[2-(4-chlorophenyl)-5-(isopropylcarbamoyl)benzyloxy]phenyl}-1-cyclopentylbenzimidazole-5-carboxylic acid hydrochloride], the IC50 was determined as 0.026 µM.

For the molecule `CN(C)C(=O)c1ccc(-c2ccc(Cl)cc2)c(COc2ccc(-c3nc4cc(C(=O)O)ccc4n3C3CCCC3)cc2)c1` [Example 414, 2-{4-[2-(4-chlorophenyl)-5-(dimethylcarbamoyl)benzyloxy]phenyl}-1-cyclopentylbenzimidazole-5-carboxylic acid hydrochloride], the IC50 is 0.024 µM.

As to `O=C(O)c1ccc2c(c1)nc(-c1ccc(OCc3cc(C(=O)N4CCC(O)CC4)ccc3-c3ccc(Cl)cc3)cc1)n2C1CCCC1` [Example 415, 2-{4-[2-(4-chlorophenyl)-5-(4-hydroxypiperidin-1-ylcarbonyl)benzyloxy]phenyl}-1-cyclopentylbenzimidazole-5-carboxylic acid hydrochloride], the IC50 came to 0.019 µM.

In the case of `CC(C)NC(=O)c1ccc(-c2ccc(Cl)cc2)c(COc2ccc(-c3nc4cc(C(=O)O)ccc4n3C3CCSCC3)cc2)c1` [Example 416, 2-{4-[2-(4-chlorophenyl)-5-(isopropylcarbamoyl)benzyloxy]phenyl}-1-(tetrahydrothiopyran-4-yl)benzimidazole-5-carboxylic acid hydrochloride], the IC50 amounted to 0.024 µM.

As to `O=C(O)c1ccc2c(c1)nc(-c1ccc(OCc3cc(C(=O)N4CCCC4)ccc3-c3ccc(Cl)cc3)cc1)n2C1CCSCC1` [Example 417, 2-{4-[2-(4-chlorophenyl)-5-(pyrrolidin-1-ylcarbonyl)benzyloxy]phenyl}-1-(tetrahydrothiopyran-4-yl)benzimidazole-5-carboxylic acid hydrochloride], the IC50 is 0.029 µM.

For the molecule `CC(C)NC(=O)c1ccc(-c2ccc(Cl)cc2)c(COc2ccc(-c3nc4cc(C(=O)O)ccc4n3C3CCSCC3)c(F)c2)c1` [Example 418, 2-{4-[2-(4-chlorophenyl)-5-(isopropylcarbamoyl)benzyloxy]-2-fluorophenyl}-1-(tetrahydrothiopyran-4-yl)benzimidazole-5-carboxylic acid hydrochloride], the half-inhibitory concentration (IC50) was 0.016 µM.

Take `O=C(O)c1ccc2c(c1)nc(-c1ccc(OCc3cc(N4CCCC4=O)ccc3-c3ccc(Cl)cc3)cc1F)n2C1CCSCC1` [Example 419, 2-{4-[2-(4-chlorophenyl)-5-(2-oxopyrrolidin-1-yl)benzyloxy]-2-fluorophenyl}-1-(tetrahydrothiopyran-4-yl)benzimidazole-5-carboxylic acid hydrochloride]: the IC50 turned out to be 0.021 µM.

On to `CC(C)NC(=O)c1ccc(-c2ccc(Cl)cc2)c(COc2ccc(-c3nc4cc(C(=O)O)ccc4n3N3CCCCC3)c(F)c2)c1` [Example 420, 2-{4-[2-(4-chlorophenyl)-5-(isopropylcarbamoyl)benzyloxy]-2-fluorophenyl}-1-piperidinobenzimidazole-5-carboxylic acid hydrochloride], for which the IC50 is 0.015 µM.

In the case of `O=C(O)c1ccc2c(c1)nc(-c1ccc(OCc3cc(C(=O)N4CCCC4)ccc3-c3ccc(Cl)cc3)cc1F)n2N1CCCCC1` [Example 421, 2-{4-[2-(4-chlorophenyl)-5-(pyrrolidin-1-ylcarbonyl)benzyloxy]-2-fluorophenyl}-1-piperidinobenzimidazole-5-carboxylic acid], the IC50 stood at 0.017 µM.

`O=C(O)c1ccc2c(c1)nc(-c1ccc(OCc3cc(C4=NCCN4)ccc3-c3ccc(Cl)cc3)cc1F)n2C1CCCCC1` [Example 422, 2-{4-[2-(4-chlorophenyl)-5-(2-imidazolin-2-yl)benzyloxy]-2-fluorophenyl}-1-cyclohexylbenzimidazole-5-carboxylic acid dihydrochloride]: the IC50 worked out at 0.017 µM.

As for `O=C(O)c1ccc2c(c1)nc(-c1ccc(OCc3cc(N4CCOC4=O)ccc3-c3ccc(Cl)cc3)cc1F)n2C1CCCCC1` [Example 423, 2-{4-[2-(4-chlorophenyl)-5-(2-oxooxazolidin-3-yl)benzyloxy]-2-fluorophenyl}-1-cyclohexylbenzimidazole-5-carboxylic acid hydrochloride], the IC50 is 0.017 µM.

For `O=C(O)c1ccc2c(c1)nc(-c1ccc(OCc3cc(N4CCNC4=O)ccc3-c3ccc(Cl)cc3)cc1F)n2C1CCCCC1` [Example 424, 2-{4-[2-(4-chlorophenyl)-5-(2-oxoimidazolidin-1-yl)benzyloxy]-2-fluorophenyl}-1-cyclohexylbenzimidazole-5-carboxylic acid hydrochloride], the IC50 was 0.02 µM.

Turning to `O=C(O)c1ccc2c(c1)nc(-c1ccc(OCc3cc(NC4=NCCO4)ccc3-c3ccc(Cl)cc3)cc1F)n2C1CCCCC1` [Example 425, 2-{4-[2-(4-chlorophenyl)-5-(2-oxazolin-2-ylamino)benzyloxy]-2-fluorophenyl}-1-cyclohexylbenzimidazole-5-carboxylic acid dihydrochloride], the IC50 was determined as 0.026 µM.

For the molecule `CN(C)C(=O)COCc1nc(-c2ccc(F)cc2)c(COc2ccc(-c3nc4cc(C(=O)O)ccc4n3C3CCCCC3)cc2)s1` [Example 426, 2-{4-[{2-[{(dimethylcarbamoyl)methoxy}methyl]-4-(4-fluorophenyl)thiazol-5-yl}methoxy]phenyl}-1-cyclohexylbenzimidazole-5-carboxylic acid hydrochloride], the half-inhibitory concentration (IC50) came out at 0.053 µM.

Values taken from patent US20040082635A1, “Fused cyclic compounds and medicinal use thereof” (priority 2001, published 2004).
